US20250034132A1, “PROLYL HYDROXYLASE DOMAIN-CONTAINING PROTEIN (PHD) INHIBITORS AND USES THEREOF” (Insilico Medicine IP Limited, priority 2021, published 2025)

Molecular target: PHD2 (Homo sapiens, UniProt Q9GZT9)
Assay: PHD2 enzymatic assay (AlphaScreen)
Format: biochemical
Details: IC50 from % inhibition

Sequence of PHD2 (Q9GZT9 whole entry): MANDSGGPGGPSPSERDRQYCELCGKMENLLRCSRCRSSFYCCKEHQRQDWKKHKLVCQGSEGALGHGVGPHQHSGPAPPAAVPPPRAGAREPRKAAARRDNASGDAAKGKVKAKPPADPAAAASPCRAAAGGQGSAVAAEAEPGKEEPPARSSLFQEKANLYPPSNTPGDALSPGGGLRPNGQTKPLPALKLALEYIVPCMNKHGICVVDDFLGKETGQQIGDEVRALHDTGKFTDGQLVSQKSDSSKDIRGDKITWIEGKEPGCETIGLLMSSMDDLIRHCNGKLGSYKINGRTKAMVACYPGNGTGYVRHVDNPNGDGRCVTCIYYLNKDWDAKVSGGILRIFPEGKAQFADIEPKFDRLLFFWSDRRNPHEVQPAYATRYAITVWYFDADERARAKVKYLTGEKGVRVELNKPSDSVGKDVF

Question: N#Cc1ccc(CNC(=O)c2ncc3nc(N4CC(N)C4)ccc3c2O)cn1 [Example 132] was tested. Which IC50 did it give?
Answer: The IC50 was under 5 nM.
